Measured values: ChEMBL document CHEMBL1130472, “Potent selective thienoxazinone inhibitors of herpes proteases” (Bioorg Med Chem Lett, 1997)

Legend:
Human alphaherpesvirus 2 [1] = experiment: Percent inhibition for peptidolytic activity against herpes simplex type-2(HSV-2) protease at 10 uM.; format: functional
Cytomegalovirus [2] = experiment: Percent inhibition for peptidolytic activity against cytomegalovirus (CMV) protease at 10 uM.; format: functional; details: Human betaherpesvirus 5
[3] = target: T1, Capsid scaffolding protein (Herpes simplex virus (type 1 / strain 17), UniProt P10210); experiment: Inhibitory concentration for peptidolytic activity against herpes simplex type-1 (HSV-1) protease at 10 uM.; set-up: species or system Human alphaherpesvirus 1
T1 sequence (P10210 whole entry): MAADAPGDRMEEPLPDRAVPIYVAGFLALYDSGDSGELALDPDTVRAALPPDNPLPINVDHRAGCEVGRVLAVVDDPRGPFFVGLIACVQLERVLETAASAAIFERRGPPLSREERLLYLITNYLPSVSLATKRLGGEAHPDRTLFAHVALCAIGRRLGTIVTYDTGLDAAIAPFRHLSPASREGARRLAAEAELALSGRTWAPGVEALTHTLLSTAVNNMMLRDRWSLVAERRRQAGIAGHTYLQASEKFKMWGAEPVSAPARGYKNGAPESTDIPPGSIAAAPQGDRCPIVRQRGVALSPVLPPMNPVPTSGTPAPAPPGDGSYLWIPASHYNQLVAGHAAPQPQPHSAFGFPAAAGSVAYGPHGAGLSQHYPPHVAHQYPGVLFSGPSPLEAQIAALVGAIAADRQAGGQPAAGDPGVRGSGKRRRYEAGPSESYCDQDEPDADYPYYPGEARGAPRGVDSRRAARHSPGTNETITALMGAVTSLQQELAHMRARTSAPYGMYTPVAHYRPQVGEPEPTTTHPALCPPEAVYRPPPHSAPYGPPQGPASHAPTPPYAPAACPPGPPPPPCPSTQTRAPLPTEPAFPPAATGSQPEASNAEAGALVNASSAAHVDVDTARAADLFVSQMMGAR

Cytomegalovirus [4] = experiment: Inhibitory concentration for peptidolytic activity against cytomegalovirus (CMV) protease at 10 uM.; format: functional, organism-based; details: Human betaherpesvirus 5
Human alphaherpesvirus 2 [5] = experiment: Inhibitory concentration for peptidolytic activity against herpes simplex type-2(HSV-2) protease at 10 uM.; format: functional, organism-based
[6] = Half life was determined; format: ADME; details: rat
[7] = Selectivity ratio of inhibitory concentration against elastase and HSV-1
[8] = Inhibitory concentration for peptidolytic activity against elastase
[9] = Tested for peptidolytic activity against subtilisin at a concentration of 1 mM; no inhibition

## C[C@H](NC(=O)OC(C)(C)C)c1nc2ccsc2c(=O)o1
Human alphaherpesvirus 2 [1]
  inhibition at 10 µM: 32%
Cytomegalovirus [2]
  inhibition at 10 µM: 15%

## CC(C)[C@H](NC(=O)OCc1ccccc1)c1nc2ccsc2c(=O)o1
[3]
  IC50: 31 µM
Cytomegalovirus [4]
  IC50: 26 µM

## Cc1ccc(S(=O)(=O)N[C@@H](C)c2nc3ccsc3c(=O)o2)cc1
Human alphaherpesvirus 2 [1]
  inhibition at 10 µM: 13%
Cytomegalovirus [2]
  inhibition at 10 µM: 30%

## Cc1csc2c(=O)oc([C@H](C)NC(=O)OCc3ccccc3)nc12
[3]
  IC50: 3.1 µM
Cytomegalovirus [4]
  IC50: 12 µM

## O=C(N[C@@H](CO)c1nc2ccsc2c(=O)o1)OCc1ccccc1
[3]
  IC50: 0.65 µM
Human alphaherpesvirus 2 [5]
  IC50: 0.33 µM
Cytomegalovirus [4]
  IC50: 20 µM

## O=C(N[C@@H](Cc1ccccc1)c1nc2ccsc2c(=O)o1)OCc1ccccc1
[3]
  IC50: > 300 µM
Cytomegalovirus [4]
  IC50: 3.5 µM

## O=C(NCc1nc2ccsc2c(=O)o1)OCc1ccccc1
[3]
  IC50: 2.7 µM
Cytomegalovirus [4]
  IC50: 45 µM

## C[C@H](Nc1ccc([N+](=O)[O-])cc1[N+](=O)[O-])c1nc2ccsc2c(=O)o1
Human alphaherpesvirus 2 [5]
  IC50: 2.9 µM
Cytomegalovirus [4]
  IC50: 3.3 µM

## C[C@H](NC(=O)OCc1ccccc1)c1nc2ccccc2c(=O)o1
[6]
  half-life: 14 h
[7]
  Ratio: 1.1
[8]
  IC50: 45 µM

## NC(=O)C[C@H](NC(=O)OCc1ccccc1)c1nc2ccsc2c(=O)o1
[3]
  IC50: 10 µM
Cytomegalovirus [4]
  IC50: 18 µM

## C[C@H](NC(=O)OCc1ccccc1)c1nc2ccsc2c(=O)o1
[9]
  IC50: Not Active
[3]
  IC50: 0.48 µM
Human alphaherpesvirus 2 [5]
  IC50: 0.42 µM
Cytomegalovirus [4]
  IC50: 9.4 µM
[6]
  half-life: > 100 h
[7]
  Ratio: 250
[8]
  IC50: 120 µM

## NC(=O)CC[C@H](NC(=O)OCc1ccccc1)c1nc2ccsc2c(=O)o1
[3]
  IC50: 6.3 µM

## Cc1cccc2nc([C@H](C)NC(=O)OCc3ccccc3)oc(=O)c12
[6]
  half-life: 33 h
[7]
  Ratio: 0.002
[8]
  IC50: 0.22 µM

## C[C@H](NC(=O)NCc1ccccc1)c1nc2ccsc2c(=O)o1
Human alphaherpesvirus 2 [1]
  inhibition at 10 µM: 1%
Cytomegalovirus [2]
  inhibition at 10 µM: 20%

## C[C@H](NC(=O)Nc1ccccc1)c1nc2ccsc2c(=O)o1
Human alphaherpesvirus 2 [5]
  IC50: > 100 µM
Cytomegalovirus [4]
  IC50: > 100 µM

## C[C@H](NC(=O)OCc1ccccc1)c1nc2cc(-c3ccccc3)sc2c(=O)o1
[3]
  IC50: 3.3 µM
Cytomegalovirus [4]
  IC50: > 300 µM

## C[C@H](NC(=O)OCc1ccccc1)c1nc2c(Cl)c(NC(=O)[C@@H](C)NC(=O)OCc3ccccc3)sc2c(=O)o1
Human alphaherpesvirus 2 [5]
  IC50: 1.6 µM
Cytomegalovirus [4]
  IC50: 1.3 µM

## C[C@H](NC(=O)OCc1ccccc1)C(=O)Nc1csc2c(=O)oc([C@H](C)NC(=O)OCc3ccccc3)nc12
Human alphaherpesvirus 2 [1]
  inhibition at 10 µM: 50%
Cytomegalovirus [2]
  inhibition at 10 µM: 43%
